In US5202331A, “Therapeutic agent for dysuria comprising alpha-phenyl-alpha-pyridylalkanoic acid derivatives” (Fujisawa Pharmaceutical Co., Ltd., priority 1990, dated 1993):
≈ marks a conversion by molar mass, not a printed value.

Key:
[1] = system: voiding reflex bladder contraction; assay: Effect on voiding reflex bladder contraction in rats with the ureter ligated; type: in vivo; conditions: Rattus norvegicus, iv, voiding reflex rhythmic bladder contraction, into the jugular vein, urethane-anesthetized male S.D rats
From the text: A midline incision was made in the abdomen of male S.D rats (body weight 250-350 g) under urethane (1.0 g/kg i.p.) anesthesia. A small incision was made in the bladder dome and one end of a polyethylene tube was inserted and, then, ligated. To the other end of the polyethylene tube was attached a three-way cock. An infusion pump was connected to one of the joints and a transducer was connected to another joint for measurement of the intravesical pressure. Physiological saline was then infused continuously into the bladder. After confirmation of steady voiding reflexes, the ureter was ligated immediately before the next voiding and the infusion of physiological saline was stopped. After the resulting rhythmic contractions became stable, the test compound was administered into the jugular vein to evaluate its effect.

[2] = system: isolated guinea pig bladder detrusor muscle; assay: Anticholinergic effect in the isolated guinea pig bladder (carbamylcholine-induced contraction); parameters: species or system male guinea pigs; conditions: Cavia porcellus, contractions induced with 10 μM carbamylcholine, Krebs solution
Procedure: Male guinea pigs weighing 400-700 g were fainted and killed by a blow on the occipital region. A bladder detrusor muscle specimen (15-20 mm long × 5 mm thick) was prepared by longitudinal section and suspended in a Magnus bath containing Krebs solution which was aerated with 95% O2 -5% CO2. Isotonic contractions were recorded through a tension transducer. The buffer solution was changed five times at 15-minute intervals. The equilibration time was […]. Contractions were induced with 10 μM carbamylcholine, and after the contractions became steady, the test compound was added to the Magnus bath and its anticholinergic effect was investigated.

[3] = system: urinary bladder contraction (hyperactive bladder, detrusor hyperreflexia); assay: Inhibition of urinary bladder contraction in the pressure-loaded hyperactive bladder model in rats; type: in vivo; conditions: Rattus norvegicus, intravenous, urethane-anesthetized male S.D. rats, hydrostatic pressure about 10 mmHg
Procedure: Male S.D. rats weighing 240-450 g were anesthetized with urethane (1.0 g/kg) s.c.. The urinary bladder was then exposed through a midline incision in the abdomen and the intravesical pressure was recorded. Thus, a balloon attached to one end of a stainless steel tube (1.2 mm in outer diameter, 5 cm in length) was inserted into the bladder through a small incision made in the bladder dome, while the other end of the tube was connected to a pressure transducer. The ureter was ligated and cut and a polyethylene cannula was inserted from the proximal cut end to drain off the urine.
Hyperactive bladder (detrusor hyperreflexia) was induced by water filling of the bladder. A hydrostatic pressure of about 10 mmHg was applied to the balloon in the bladder.
When the contractile response of the bladder to water pressure loading became steady, the test compound was administered intravenously.

Acute toxicity test = assay: Acute toxicity test; parameters: species or system rats (Crj:CD(SD) strain); conditions: rat, in vivo, 14 days observation, probit method
Procedure: Five rats (Crj:CD(SD) strain) of either sex were used per group. Solutions of the test compound were prepared as shown below and administered to rats intravenously or subcutaneously. The rats were then observed for 14 days. The LD50 values were calculated by the probit method. (Preparation of test solutions)
The test compound was dissolved in hydrochloric acid and the solution was adjusted to pH 6-7 with sodium hydrogen carbonate and diluted with physiological saline to the required concentrations.

For `C[C@H](C[C@@](C(N)=O)(c1ccccc1)c1ccccn1)N(C)C` (relative stereo) [test compound, (±)-(2R*,4R*)-4-Dimethylamino-2-phenyl-2-(2-pyridyl)-valeramide], the ED50 [1] was 0.56 mg/kg, the IC50 [2] was 0.6 µg/mL (≈ 2.02 µM) and the ED30 [3] was 0.09 mg/kg. The LD50 at 336 h (Acute toxicity test; iv, Female) was 42.3 mg/kg, the LD50 at 336 h (Acute toxicity test; iv, Male) was 47.2 mg/kg and the LD50 at 336 h (Acute toxicity test; sc, Female) was 915 mg/kg. It also gave an LD50 at 336 h (Acute toxicity test; sc, Male) of 922 mg/kg.
